Measurements reported in US20220281831A1, “FUSED-GLUTARIMIDE CRBN LIGANDS AND USES THEREOF” (Kymera Therapeutics, Inc., priority 2019, published 2022).

Molecular target: His-tagged CRBN-DDB1 complex (Homo sapiens, UniProt Q96SW2)
Assay: Time-Resolved Fluorescence Resonance Energy Transfer (TR-FRET / HTRF) CRBN binding assay, displacement of Cy5-labeled thalidomide
Conditions: His-CRBN-DDB1, Cy5-thalidomide 8 nM, 1 hour room temperature
Description: Time-Resolved Fluorescence Resonance Energy Transfer (TR-FRET) Assay.
Equal volumes of His-tagged CRBN-DDB1 complex (56 nM) was mixed with Eu-cryptate labeled Anti-6HIS-monoclonal antibody (50× dilution from the commercial stock solution, Vender: Cisbio, Cat. #61HI2KLA) in a final buffer containing 20 mM HEPES pH 7.0, 150 mM NaCl, 0.005% Tween-20. […] The mixture were incubated at room temperature for 1 hour. FRET signals were measured on an EnVision plate reader (Perkin Elmer) by exciting at 340 nm and recording emission at both 615 nm as no FRET control and 665 nm as the FRET signals with a 60 microsecond delay. FRET efficiency was calculated as the ratio of fluorescent signals at […]. Quantitative loss of FRET efficiency as a function of compound concentrations was fitted by a four-parameter Logistic Function using GraphPad Prism 7.0 and the IC50 values were reported for each compound.
The compound numbers correspond to the compound numbers in Table 1.

His-tagged CRBN-DDB1 complex, sequence (Q96SW2 whole entry): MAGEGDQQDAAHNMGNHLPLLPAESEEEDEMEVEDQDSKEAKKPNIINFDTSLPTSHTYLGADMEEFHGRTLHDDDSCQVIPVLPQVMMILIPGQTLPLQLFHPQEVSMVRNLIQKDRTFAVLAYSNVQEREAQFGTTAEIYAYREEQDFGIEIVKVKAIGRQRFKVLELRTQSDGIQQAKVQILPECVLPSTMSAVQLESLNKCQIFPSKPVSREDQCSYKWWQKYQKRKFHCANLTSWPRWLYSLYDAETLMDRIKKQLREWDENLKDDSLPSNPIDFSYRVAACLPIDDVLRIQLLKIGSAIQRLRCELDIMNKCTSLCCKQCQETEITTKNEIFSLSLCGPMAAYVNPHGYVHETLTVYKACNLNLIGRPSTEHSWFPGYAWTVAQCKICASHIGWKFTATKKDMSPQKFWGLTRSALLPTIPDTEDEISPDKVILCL
His-tagged CRBN-DDB1 complex, sequence (Q16531 whole entry partner): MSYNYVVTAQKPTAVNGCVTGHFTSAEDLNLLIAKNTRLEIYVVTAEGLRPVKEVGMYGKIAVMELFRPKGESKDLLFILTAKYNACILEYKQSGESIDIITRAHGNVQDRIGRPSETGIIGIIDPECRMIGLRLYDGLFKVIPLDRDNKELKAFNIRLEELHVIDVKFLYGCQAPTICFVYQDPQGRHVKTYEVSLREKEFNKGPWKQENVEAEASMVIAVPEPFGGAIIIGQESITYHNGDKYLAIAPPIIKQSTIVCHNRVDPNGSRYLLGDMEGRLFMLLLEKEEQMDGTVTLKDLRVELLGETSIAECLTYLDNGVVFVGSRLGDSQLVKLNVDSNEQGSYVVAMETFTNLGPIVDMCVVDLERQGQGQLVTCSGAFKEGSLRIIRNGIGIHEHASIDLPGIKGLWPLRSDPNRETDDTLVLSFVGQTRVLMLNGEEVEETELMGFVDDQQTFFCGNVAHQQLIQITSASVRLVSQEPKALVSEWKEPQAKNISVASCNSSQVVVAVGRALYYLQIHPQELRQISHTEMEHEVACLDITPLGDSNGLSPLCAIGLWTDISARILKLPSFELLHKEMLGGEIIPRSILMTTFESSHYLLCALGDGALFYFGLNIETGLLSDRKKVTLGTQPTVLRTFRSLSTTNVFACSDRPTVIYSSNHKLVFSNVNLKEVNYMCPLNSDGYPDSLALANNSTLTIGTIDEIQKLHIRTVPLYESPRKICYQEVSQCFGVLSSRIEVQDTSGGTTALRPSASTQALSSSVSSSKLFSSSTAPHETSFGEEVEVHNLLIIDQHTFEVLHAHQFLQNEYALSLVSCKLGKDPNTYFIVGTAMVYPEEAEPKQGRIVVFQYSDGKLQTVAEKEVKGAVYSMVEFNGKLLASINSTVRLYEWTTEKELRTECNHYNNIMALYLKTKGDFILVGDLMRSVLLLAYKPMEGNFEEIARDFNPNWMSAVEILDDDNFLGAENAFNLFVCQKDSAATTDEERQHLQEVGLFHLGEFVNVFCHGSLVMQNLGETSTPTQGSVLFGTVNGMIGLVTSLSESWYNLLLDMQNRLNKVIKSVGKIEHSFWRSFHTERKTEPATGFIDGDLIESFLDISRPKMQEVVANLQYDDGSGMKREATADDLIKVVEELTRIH

IC50	SMILES
> 100 µM	Cc1cccc(N2C[C@@H]3C(=O)NC(=O)[C@@H]3C2)c1 [Compound I-161]
> 100 µM	COC(=O)c1ccc(N2CCC3(CC2)CC(=O)NC(=O)C3)cc1 [Compound I-162]
> 100 µM	O=C1NC(=O)[C@@H]2CN(C3CCC3)C[C@H]12 [Compound I-163]
> 100 µM	Cc1cccc(C(=O)N2C[C@@H]3C(=O)NC(=O)[C@@H]3C2)n1 [Compound I-164]
> 100 µM	COc1cccc(C(=O)N2C[C@@H]3C(=O)NC(=O)[C@@H]3C2)n1 [Compound I-165]
> 100 µM	O=C1NC(=O)[C@@H]2CN(C(=O)c3cc(C(F)(F)F)ccn3)C[C@H]12 [Compound I-166]
> 100 µM	O=C1NC(=O)[C@@H]2CN(C(=O)c3ccc4ccccc4n3)C[C@H]12 [Compound I-167]
> 100 µM	O=C1NC(=O)[C@@H]2CN(C(=O)c3cc4ccccc4cn3)C[C@H]12 [Compound I-168]
> 100 µM	Nc1cccc(C(=O)N2C[C@@H]3C(=O)NC(=O)[C@@H]3C2)c1 [Compound I-169]
> 100 µM	NC(=O)c1ccccc1N1C[C@@H]2C(=O)NC(=O)[C@@H]2C1 [Compound I-170]
> 100 µM	CC(=O)Nc1ccccc1N1C[C@@H]2C(=O)NC(=O)[C@@H]2C1 [Compound I-171]
> 100 µM	O=CNc1ccccc1N1C[C@@H]2C(=O)NC(=O)[C@@H]2C1 [Compound I-172]
> 100 µM	Nc1ccc2c(c1)C1(CC(=O)NC1=O)C(=O)N2 (stereo not drawn) [Compound I-173]
> 100 µM	O=C1CC2(C(=O)N1)C(=O)Nc1ccccc12 (stereo not drawn) [Compound I-174]
> 100 µM	CNC(=O)c1cccc(N2C[C@@H]3C(=O)NC(=O)[C@@H]3C2)c1 [Compound I-177]
> 100 µM	CN(C)C(=O)c1cccc(N2C[C@@H]3C(=O)NC(=O)[C@@H]3C2)c1 [Compound I-178]
> 100 µM	N#Cc1cccc(N2C[C@@H]3C(=O)NC(=O)[C@@H]3C2)c1 [Compound I-179]
> 100 µM	CS(=O)(=O)c1cccc(N2C[C@@H]3C(=O)NC(=O)[C@@H]3C2)c1 [Compound I-180]
> 100 µM	COCc1cccc(N2C[C@@H]3C(=O)NC(=O)[C@@H]3C2)c1 [Compound I-181]
> 100 µM	COc1ccccc1C(=O)N1C[C@@H]2C(=O)NC(=O)[C@@H]2C1 [Compound I-182]
> 100 µM	CN1C(=O)C2(CC(=O)NC2=O)c2cc(N)ccc21 (stereo not drawn) [Compound I-183]
> 100 µM	CN1C(=O)C2(CC(=O)NC2=O)c2ccccc21 (stereo not drawn) [Compound I-184]
> 100 µM	Cn1c(=O)[nH]c2cccc(Br)c2c1=O [Compound I-190]
> 100 µM	Cn1c(=O)c2cc(Br)ccc2n(C)c1=O [Compound I-191]
> 100 µM	Cn1c(=O)c2c(Br)cccc2n(C)c1=O [Compound I-192]
> 100 µM	O=C1CC2(Nc3ccccc3C2=O)C(=O)N1 (stereo not drawn) [Compound I-195, 1H-spiro[indole-2,3′-pyrrolidine]-2′,3,5′-trione]

IC50	SMILES
> 100 µM	O=C1CCc2cccc(Oc3ccccc3)c2C(=O)N1 [Compound I-209, 9-Phenoxy-4,5-dihydro-2H-2-benzazepine-1,3-dione]
< 10 µM	O=C1Cc2cccc(Oc3ccccc3C(F)(F)F)c2C(=O)N1 [Compound I-210, 8-[2-(Trifluoromethyl)phenoxy]-2,4-dihydroisoquinoline-1,3-dione]
< 10 µM	CC(C)c1ccccc1Oc1cccc2c1C(=O)NC(=O)C2 [Compound I-211, 8-(2-Isopropylphenoxy)-2,4-dihydroisoquinoline-1,3-dione]
30 to 100 µM	CC(C)(C)OC(=O)NCC#Cc1ccccc1Oc1cccc2c1C(=O)NC(=O)C2 [Compound I-212]
< 10 µM	CC(C)(C)OC(=O)NCCCCCC#Cc1ccccc1Oc1cccc2c1C(=O)NC(=O)C2=O [Compound I-242]
30 to 100 µM	Cc1ccc(Oc2ccccc2)c2c1CC(=O)NC2=O [Compound I-279]
30 to 100 µM	CN(Cc1ccccc1)C(=O)c1cccc2c1C(=O)NC(=O)C2 [Compound I-280]
< 10 µM	O=C1Cc2cccc(NCc3ccccc3)c2C(=O)N1 [Compound I-281]
> 100 µM	CC(C1CC1)N1C[C@@H]2C(=O)NC(=O)[C@@H]2C1 (stereo partly drawn) [Compound I-282]
> 100 µM	O=C1NC(=O)c2cc(NC(=O)N3CCCCC3)ccc21 [Compound I-283]
> 100 µM	CC(=O)N1C[C@@H]2C(=O)NC(=O)[C@@H]2C1 [Compound I-284]
> 100 µM	O=C1NC(=O)[C@@H]2CN(C(=O)c3ccc(Cl)cc3)C[C@H]12 [Compound I-286]
> 100 µM	O=C1NC(=O)[C@@H]2CN(Cc3cccc(O)c3)C[C@H]12 [Compound I-287]
> 100 µM	O=C1NC(=O)[C@@H]2CN(Cc3c[nH]c4ccccc34)C[C@H]12 [Compound I-288]
> 100 µM	O=C1NC(=O)[C@@H]2CN(C3Cc4ccccc4C3)C[C@H]12 [Compound I-289]
> 100 µM	O=C1NC(=O)[C@@H]2CN(C(=O)c3ccc(O)cc3)C[C@H]12 [Compound I-291]
> 100 µM	COc1ccc(CN2C[C@@H]3C(=O)NC(=O)[C@@H]3C2)cn1 [Compound I-293]
> 100 µM	CN(C)c1ccc(CN2C[C@@H]3C(=O)NC(=O)[C@@H]3C2)cc1 [Compound I-294]
30 to 100 µM	O=C1NC(=O)[C@@H]2CN(Cc3ccc([N+](=O)[O-])s3)C[C@H]12 [Compound I-295]
> 100 µM	O=C1NC(=O)[C@@H]2CN(C3CCN(Cc4ccccc4)CC3)C[C@H]12 [Compound I-296]
> 100 µM	O=C1NC(=O)[C@@H]2CN(Cc3c[nH]cn3)C[C@H]12 [Compound I-297]
> 100 µM	O=C1NC(=O)[C@@H]2CN(CCc3ccccc3)C[C@H]12 [Compound I-298]
> 100 µM	Cc1ccc(CN2C[C@@H]3C(=O)NC(=O)[C@@H]3C2)cc1 [Compound I-299]
> 100 µM	O=C1NC(=O)[C@@H]2CN(Cc3ccc[nH]3)C[C@H]12 [Compound I-300]
> 100 µM	O=C1NC(=O)[C@@H]2CN(C(=O)c3ccnc(Cl)c3)C[C@H]12 [Compound I-301]
> 100 µM	O=C1NC(=O)[C@@H]2CN(C(=O)c3n[nH]c4ccccc34)C[C@H]12 [Compound I-302]

IC50	SMILES
> 100 µM	O=C1NC(=O)[C@@H]2CN(C(=O)COCc3ccccc3)C[C@H]12 [Compound I-303]
> 100 µM	O=C1NC(=O)[C@@H]2CN(C(=O)c3cccnn3)C[C@H]12 [Compound I-304]
> 100 µM	Cc1cccc(CC(=O)N2C[C@@H]3C(=O)NC(=O)[C@@H]3C2)c1 [Compound I-305]
> 100 µM	O=C1NC(=O)[C@@H]2CN(C(=O)C3CC3)C[C@H]12 [Compound I-306]
> 100 µM	O=C1NC(=O)[C@@H]2CN(C(=O)c3cnccn3)C[C@H]12 [Compound I-307]
> 100 µM	O=C1NC(=O)[C@@H]2CN(C(=O)c3ccco3)C[C@H]12 [Compound I-308]
> 100 µM	Cc1ncoc1C(=O)N1C[C@@H]2C(=O)NC(=O)[C@@H]2C1 [Compound I-309]
> 100 µM	Cc1cc(C(=O)N2C[C@@H]3C(=O)NC(=O)[C@@H]3C2)ccn1 [Compound I-310]
30 to 100 µM	O=C1NC(=O)[C@@H]2CN(Cc3ccc(Oc4ccccc4)cc3)C[C@H]12 [Compound I-311]
> 100 µM	CCCCOc1ccc(CN2C[C@@H]3C(=O)NC(=O)[C@@H]3C2)cc1 [Compound I-312]
> 100 µM	O=C1NC(=O)[C@@H]2CN(Cc3ccc(F)c4ccccc34)C[C@H]12 [Compound I-313]
> 100 µM	Cc1ccc(CN2C[C@@H]3C(=O)NC(=O)[C@@H]3C2)o1 [Compound I-314]
> 100 µM	O=C1NC(=O)[C@@H]2CN(Cc3cccc4cccnc34)C[C@H]12 [Compound I-315]
30 to 100 µM	O=C1NC(=O)[C@@H]2CN(Cc3cc4ccccc4o3)C[C@H]12 [Compound I-316]
30 to 100 µM	O=C1NC(=O)[C@@H]2CN(C(=O)c3ccc4ccccc4c3)C[C@H]12 [Compound I-317]
> 100 µM	O=C1NC(=O)[C@@H]2CN(C(=O)c3cncs3)C[C@H]12 [Compound I-318]
> 100 µM	O=C1NC(=O)[C@@H]2CN(C(=O)c3ccc4ccoc4c3)C[C@H]12 [Compound I-320]
> 100 µM	O=C1NC(=O)[C@@H]2CN(C(=O)c3cccs3)C[C@H]12 [Compound I-321]
> 100 µM	O=C1NC(=O)[C@@H]2CN(C(=O)c3ccc(F)cc3)C[C@H]12 [Compound I-322]
> 100 µM	Cc1cccc(C(=O)N2C[C@@H]3C(=O)NC(=O)[C@@H]3C2)c1 [Compound I-323]
> 100 µM	COc1ccc(C(=O)N2C[C@@H]3C(=O)NC(=O)[C@@H]3C2)cn1 [Compound I-324]
> 100 µM	O=C1NC(=O)[C@@H]2CN(Cc3cccc4ccccc34)C[C@H]12 [Compound I-325]
> 100 µM	CC(=O)Nc1ccc2c(c1)C(=O)NC2=O [Compound I-326]
> 100 µM	O=C1NC(=O)[C@@H]2CNC[C@H]12 [Compound I-327]
> 100 µM	O=C1NC(=O)[C@@H]2CN(Cc3ccccc3)C[C@H]12 [Compound I-328]
> 100 µM	O=C1CC2(CCN(Cc3cccc4cccnc34)CC2)CC(=O)N1 [Compound I-329]
